From ChEMBL document CHEMBL3352358, “Discovery of 2-(cyclohexylmethylamino)pyrimidines as a new class of reversible valosine containing protein inhibitors” (J Med Chem, 2014)

Biological target: Transitional endoplasmic reticulum ATPase (Homo sapiens, UniProt P55072)
Experiment: biochemical
Type: cell-based
Details: not given; call rule not given here

Sequence of Transitional endoplasmic reticulum ATPase (P55072 whole entry): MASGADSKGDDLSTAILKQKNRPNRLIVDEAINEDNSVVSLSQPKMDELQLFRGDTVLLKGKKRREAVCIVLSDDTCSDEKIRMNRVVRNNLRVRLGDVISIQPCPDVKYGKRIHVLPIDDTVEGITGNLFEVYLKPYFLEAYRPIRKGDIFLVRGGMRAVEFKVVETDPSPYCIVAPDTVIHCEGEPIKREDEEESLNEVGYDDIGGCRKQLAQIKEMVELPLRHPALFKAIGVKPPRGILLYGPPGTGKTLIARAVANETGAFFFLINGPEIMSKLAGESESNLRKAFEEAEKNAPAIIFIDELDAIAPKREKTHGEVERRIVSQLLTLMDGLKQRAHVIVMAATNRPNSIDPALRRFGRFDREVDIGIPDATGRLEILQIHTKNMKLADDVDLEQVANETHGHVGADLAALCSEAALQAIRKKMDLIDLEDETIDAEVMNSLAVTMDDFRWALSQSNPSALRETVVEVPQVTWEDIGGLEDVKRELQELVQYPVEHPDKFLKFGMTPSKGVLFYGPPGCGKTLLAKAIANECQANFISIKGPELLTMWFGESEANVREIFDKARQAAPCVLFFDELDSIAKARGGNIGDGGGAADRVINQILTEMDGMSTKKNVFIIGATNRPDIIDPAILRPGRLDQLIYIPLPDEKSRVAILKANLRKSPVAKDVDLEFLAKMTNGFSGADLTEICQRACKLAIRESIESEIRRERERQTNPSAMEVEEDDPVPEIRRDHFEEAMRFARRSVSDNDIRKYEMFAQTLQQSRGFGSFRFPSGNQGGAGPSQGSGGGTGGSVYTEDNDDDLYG

| Compound | IC50 [nM] |
| --- | --- |
| Cc1cc(-c2ccccc2)nc(SCc2ccc(C(=O)NS(=O)(=O)C(F)(F)F)cc2)n1 | 21600 |
| Cc1cc(-c2ccccc2)nc(Sc2ccc(C(=O)O)cc2)n1 | > 37000 |
| Cc1cc(-c2ccccc2)nc(SCCC(=O)O)n1 | > 37000 |
| Cc1cc(-c2ccccc2)nc(S(=O)(=O)Cc2ccc(C(=O)O)cc2)n1 | > 37000 |
| Cc1cc(-c2ccccc2)nc(NC[C@H]2CC[C@H](C(=O)O)CC2)n1 | 2600 |
| O=C(O)[C@H]1CC[C@H](CNc2nccc(-c3ccccc3)n2)CC1 | 8700 |
| Cc1cc(-c2ccccc2C)nc(NC[C@H]2CC[C@H](C(=O)O)CC2)n1 | > 37000 |
| COc1ccccc1-c1cc(C)nc(NC[C@H]2CC[C@H](C(=O)O)CC2)n1 | > 37000 |
| Cc1cccc(-c2cc(C)nc(NC[C@H]3CC[C@H](C(=O)O)CC3)n2)c1 | 11400 |
| Cc1cc(-c2cccc(Cl)c2)nc(NC[C@H]2CC[C@H](C(=O)O)CC2)n1 | 4800 |
| COc1cccc(-c2cc(C)nc(NC[C@H]3CC[C@H](C(=O)O)CC3)n2)c1 | > 37000 |
| COc1ccc(-c2cc(C)nc(NC[C@H]3CC[C@H](C(=O)O)CC3)n2)cc1 | > 37000 |
| O=C(O)[C@H]1CC[C@H](CNc2nc(-c3ccccc3)cc(-c3ccccc3)n2)CC1 | 300 |
| Cc1ccccc1-c1cc(-c2ccccc2)nc(NC[C@H]2CC[C@H](C(=O)O)CC2)n1 | 673 |
| O=C(O)[C@H]1CC[C@H](CNc2nc(-c3ccccc3)cc(-c3ccccc3F)n2)CC1 | 141 |
| O=C(O)[C@H]1CC[C@H](CNc2nc(-c3ccccc3)cc(-c3ccccc3Cl)n2)CC1 | 700 |
| COc1ccccc1-c1cc(-c2ccccc2)nc(NC[C@H]2CC[C@H](C(=O)O)CC2)n1 | 3040 |
| Cc1cccc(-c2cc(-c3ccccc3)nc(NC[C@H]3CC[C@H](C(=O)O)CC3)n2)c1 | 578 |
| COc1cccc(-c2cc(-c3ccccc3)nc(NC[C@H]3CC[C@H](C(=O)O)CC3)n2)c1 | 543 |
| CS(=O)(=O)c1cccc(-c2cc(-c3ccccc3)nc(NC[C@H]3CC[C@H](C(=O)O)CC3)n2)c1 | 116 |
| O=C(O)[C@H]1CC[C@H](CNc2nc(-c3ccccc3)cc(-c3cccc([N+](=O)[O-])c3)n2)CC1 | 201 |
| O=C(O)[C@H]1CC[C@H](CNc2nc(-c3ccccc3)cc(-c3ccc(F)cc3)n2)CC1 | 742 |
| O=C(O)[C@H]1CC[C@H](CNc2nc(-c3ccccc3)cc(-c3ccc(Cl)cc3)n2)CC1 | 221 |

| Compound | IC50 [nM] |
| --- | --- |
| COc1ccc(-c2cc(-c3ccccc3)nc(NC[C@H]3CC[C@H](C(=O)O)CC3)n2)cc1 | 921 |
| O=C(O)[C@H]1CC[C@H](CNc2nc(-c3ccccc3)cc(-c3ccc([N+](=O)[O-])cc3)n2)CC1 | 2190 |
| Nc1ccc(-c2cc(-c3ccccc3)nc(NC[C@H]3CC[C@H](C(=O)O)CC3)n2)cc1[N+](=O)[O-] | 60 |
| O=C(O)[C@H]1CC[C@H](CNc2nc(-c3ccccc3)cc(-c3ccc4[nH]ccc4c3)n2)CC1 | 150 |
| O=C(O)[C@H]1CC[C@H](CNc2nc(-c3ccccc3)cc(-c3ccco3)n2)CC1 | 570 |
| O=C(O)[C@H]1CC[C@H](CNc2nc(-c3ccccc3)cc(-c3cccnc3)n2)CC1 | 1200 |
| O=C(O)[C@H]1CC[C@H](CNc2nc(-c3ccccc3)cc(-c3ccoc3)n2)CC1 | 2190 |
| O=C(O)[C@H]1CC[C@H](CNc2nc(NC3CCCCC3)cc(-c3ccccc3)n2)CC1 | 4310 |
| Cc1ccccc1CNc1cc(-c2ccccc2)nc(NC[C@H]2CC[C@H](C(N)=O)CC2)n1 | 9290 |
| NC(=O)[C@H]1CC[C@H](CNc2nc(NCc3ccccc3F)cc(-c3ccccc3)n2)CC1 | 1690 |
| NC(=O)[C@H]1CC[C@H](CNc2nc(NCc3ccccc3Br)cc(-c3ccccc3)n2)CC1 | 7110 |
| NC(=O)[C@H]1CC[C@H](CNc2nc(NCc3cccc(F)c3)cc(-c3ccccc3)n2)CC1 | 474 |
| NC(=O)[C@H]1CC[C@H](CNc2nc(NCc3cccc(Cl)c3)cc(-c3ccccc3)n2)CC1 | 2760 |
| COc1cccc(CNc2cc(-c3ccccc3)nc(NC[C@H]3CC[C@H](C(N)=O)CC3)n2)c1 | 5640 |
| NC(=O)[C@H]1CC[C@H](CNc2nc(NCc3cccc([N+](=O)[O-])c3)cc(-c3ccccc3)n2)CC1 | 4610 |
| NC(=O)[C@H]1CC[C@H](CNc2nc(NCc3cccc(S(N)(=O)=O)c3)cc(-c3ccccc3)n2)CC1 | 7610 |
| Cc1ccc(CNc2cc(-c3ccccc3)nc(NC[C@H]3CC[C@H](C(N)=O)CC3)n2)cc1 | 2180 |
| NC(=O)[C@H]1CC[C@H](CNc2nc(NCc3ccc(F)cc3)cc(-c3ccccc3)n2)CC1 | 2430 |
| NC(=O)[C@H]1CC[C@H](CNc2nc(NCc3ccc(Cl)cc3)cc(-c3ccccc3)n2)CC1 | 3470 |
| COc1ccc(CNc2cc(-c3ccccc3)nc(NC[C@H]3CC[C@H](C(N)=O)CC3)n2)cc1 | 5040 |
| CS(=O)(=O)c1ccc(CNc2cc(-c3ccccc3)nc(NC[C@H]3CC[C@H](C(N)=O)CC3)n2)cc1 | > 10000 |
| NC(=O)[C@H]1CC[C@H](CNc2nc(NCc3ccccc3)cc(-c3ccoc3)n2)CC1 | 491 |

The remaining lines, values ahead:

| IC50 [nM] | Compound |
| --- | --- |
| 4800 | Cc1cc(-c2ccccc2)nc(SCc2ccc(C(=O)O)cc2)n1 |
| > 37000 | Cc1cc(-c2ccccc2)nc(SCc2ccccc2)n1 |
| 20500 | Cc1cc(-c2ccccc2)nc(SCCc2ccc(C(=O)O)cc2)n1 |
| 15400 | Cc1cc(-c2ccccc2)nc(NCc2ccc(C(=O)O)cc2)n1 |
| > 37000 | Cc1cc(-c2ccccc2)nc(NCc2cccc(C(=O)O)c2)n1 |
| 2700 | Cc1ccc(-c2cc(C)nc(NC[C@H]3CC[C@H](C(=O)O)CC3)n2)cc1 |
| 2600 | Cc1cc(-c2ccc(Cl)cc2)nc(NC[C@H]2CC[C@H](C(=O)O)CC2)n1 |
| 8400 | Cc1cc(-c2ccc(F)cc2)nc(NC[C@H]2CC[C@H](C(=O)O)CC2)n1 |
| 552 | O=C(O)[C@H]1CC[C@H](CNc2nc(-c3ccccc3)cc(-c3cccc(F)c3)n2)CC1 |
| 483 | O=C(O)[C@H]1CC[C@H](CNc2nc(-c3ccccc3)cc(-c3cccc(Cl)c3)n2)CC1 |
| 879 | [N-]=[N+]=Nc1cccc(-c2cc(-c3ccccc3)nc(NC[C@H]3CC[C@H](C(=O)O)CC3)n2)c1 |
| 577 | Cc1ccc(-c2cc(-c3ccccc3)nc(NC[C@H]3CC[C@H](C(=O)O)CC3)n2)cc1 |
| 1090 | CS(=O)(=O)c1ccc(-c2cc(-c3ccccc3)nc(NC[C@H]3CC[C@H](C(=O)O)CC3)n2)cc1 |
| 112 | Nc1ccc(-c2cc(-c3ccccc3)nc(NC[C@H]3CC[C@H](C(=O)O)CC3)n2)cc1 |
| 1670 | O=C(O)[C@H]1CC[C@H](CNc2nc(-c3ccccc3)cc(-c3ccncc3)n2)CC1 |
| 36 | O=C(O)[C@H]1CC[C@H](CNc2nc(Nc3ccccc3)cc(-c3ccccc3)n2)CC1 |
| > 10000 | O=C(O)[C@H]1CC[C@H](CNc2nc(-c3ccccc3)cc(N3CCOCC3)n2)CC1 |
| 6940 | NC(=O)[C@H]1CC[C@H](CNc2nc(NCc3ccccc3Cl)cc(-c3ccccc3)n2)CC1 |
| 8860 | COc1ccccc1CNc1cc(-c2ccccc2)nc(NC[C@H]2CC[C@H](C(N)=O)CC2)n1 |
| 1680 | Cc1cccc(CNc2cc(-c3ccccc3)nc(NC[C@H]3CC[C@H](C(N)=O)CC3)n2)c1 |
| 5170 | NC(=O)[C@H]1CC[C@H](CNc2nc(NCc3ccc(S(N)(=O)=O)cc3)cc(-c3ccccc3)n2)CC1 |

System: not listed separately
Experiment: Inhibition of cell proliferation of human HCT116 cells after 72 hrs by thermostable firefly luciferase based assay
Type: functional, HCT-116
Details: Homo sapiens, HCT-116, 72 h; read-out: IC50

| Compound | IC50 [nM] |
| --- | --- |
| NC(=O)[C@H]1CC[C@H](CNc2nc(NCc3ccccc3)cc(-c3ccoc3)n2)CC1 | 8750 |

Same assay, conditions: hct-116

| Compound | IC50 |
| --- | --- |
| COC(=O)[C@H]1CC[C@H](CNc2nc(NCc3ccccc3)cc(-c3ccccc3)n2)CC1 | Not Active |
